Measured values taken from PMC10692386 (Acta Pharmaceutica Sinica. B, 2023).

Assays:
[1] = test system: WT HIV-1; assay: Anti-HIV-1 activity in MT-4 cells infected with HIV-1; assay type: cell-based; details: for EC50: Human immunodeficiency virus 1, MT4; for SI: selectivity index, the ratio of CC50/EC50, WT HIV-1
[2] = Cytotoxicity in mock-infected MT-4 cell cultures; assay type: cell-based; details: human, mock-infected MT-4 cells

| SMILES | EC50 [1] [µM] | SI [1] | CC50 [2] [µM] |
| --- | --- | --- | --- |
| Cc1cc(Oc2c(C(F)(F)F)ccn(Cc3n[nH]c(=O)n3C)c2=O)c2cc(F)c(Cl)cc2n1 [7ae] | 11.7 ± 9.1 | 7.92 | 92.9 ± 44 |
| Cn1c(Cn2ccc(C(F)(F)F)c(Oc3cnc4ccccc4c3)c2=O)n[nH]c1=O [7ag] | > 250 | >1 | > 250 |
| Cn1c(Cn2ccc(C(F)(F)F)c(Oc3ccc4ncccc4c3)c2=O)n[nH]c1=O [7ah] | 252 ± 5.75 | >1 | > 299 |
| Cn1c(Cn2ccc(C(F)(F)F)c(Oc3ccc4cnccc4c3)c2=O)n[nH]c1=O [7ai] | 11.2 ± 2.83 | >27 | > 299 |
| Cn1c(Cn2ccc(C(F)(F)F)c(Oc3cc(Cl)c4ncccc4c3)c2=O)n[nH]c1=O [7ak] | > 192 | <1 | 192 ± 42.9 |
| Cn1c(Cn2ccc(C(F)(F)F)c(Oc3ccc4nc(Cl)ccc4c3)c2=O)n[nH]c1=O [7al] | 46.7 ± 12.5 | 3.68 | 172 ± 44.9 |
| Cn1c(Cn2ccc(C(F)(F)F)c(Oc3cnc(Cl)c(Cl)c3)c2=O)n[nH]c1=O [7d] | 2.02 ± 0.88 | 122.98 | 248 ± 28.2 |
| Cn1c(Cn2ccc(C(F)(F)F)c(Oc3ccc(Br)nc3)c2=O)n[nH]c1=O [7g] | 197 ± 58.9 | >1 | > 280 |
| Cc1cc(Oc2c(C(F)(F)F)ccn(Cc3n[nH]c(=O)n3C)c2=O)cnc1Br [7o] | 1.27 ± 0.36 | >214 | > 272 |
| COc1cncc(Oc2c(C(F)(F)F)ccn(Cc3n[nH]c(=O)n3C)c2=O)c1 [7q] | 7.33 ± 5.03 | >43 | > 250 |
| Cn1c(Cn2ccc(C(F)(F)F)c(Oc3ccc(C(F)(F)F)nc3)c2=O)n[nH]c1=O [7r] | > 250 | >1 | > 250 |

Continued, in another order:

| EC50 [1] [µM] | SMILES | SI [1] | CC50 [2] [µM] |
| --- | --- | --- | --- |
| > 220 | Cc1cc(Oc2c(C(F)(F)F)ccn(Cc3n[nH]c(=O)n3C)c2=O)c2cccc(F)c2n1 [7aa] | <1 | 220 ± 44.4 |
| > 151 | Cc1cc(Oc2c(C(F)(F)F)ccn(Cc3n[nH]c(=O)n3C)c2=O)c2cccc(C)c2n1 [7ac] | <1 | 151 ± 27.9 |
| 33.3 ± 9.61 | Cc1cc(Oc2c(C(F)(F)F)ccn(Cc3n[nH]c(=O)n3C)c2=O)c2c(Cl)c(F)ccc2n1 [7af] | 2.45 | 81.5 ± 11.7 |
| > 164 | Cn1c(Cn2ccc(C(F)(F)F)c(Oc3ccc4cccnc4c3Br)c2=O)n[nH]c1=O [7am] | <1 | 164 ± 25.5 |
| 4.27 ± 0.75 | Cn1c(Cn2ccc(C(F)(F)F)c(Oc3cccnc3Cl)c2=O)n[nH]c1=O [7b] | 67.97 | 290 ± 24.1 |
| 35.6 ± 10.3 | Cn1c(Cn2ccc(C(F)(F)F)c(Oc3ccc(Cl)nc3)c2=O)n[nH]c1=O [7c] | >9 | > 311 |
| 4.44 ± 0.94 | Cn1c(Cn2ccc(C(F)(F)F)c(Oc3cccnc3Br)c2=O)n[nH]c1=O [7f] | 61.07 | 270.9 ± 1.77 |
| 6.76 ± 1.07 | Cc1ncccc1Oc1c(C(F)(F)F)ccn(Cc2n[nH]c(=O)n2C)c1=O [7i] | >49 | > 328 |
| 21.1 ± 5 | Cc1ccc(Oc2c(C(F)(F)F)ccn(Cc3n[nH]c(=O)n3C)c2=O)cn1 [7j] | – | > 328 |
| 1.53 ± 0.25 | Cc1ccncc1Oc1c(C(F)(F)F)ccn(Cc2n[nH]c(=O)n2C)c1=O [7k] | >214 | > 328 |
| > 250 | Cc1ccc(Oc2c(C(F)(F)F)ccn(Cc3n[nH]c(=O)n3C)c2=O)c(Br)n1 [7l] | <1 | 253 ± 16.8 |
| > 250 | Cc1ccc(Oc2c(C(F)(F)F)ccn(Cc3n[nH]c(=O)n3C)c2=O)c(C)n1 [7m] | <1 | > 250 |
| > 250 | CCc1nc(C)ccc1Oc1c(C(F)(F)F)ccn(Cc2n[nH]c(=O)n2C)c1=O [7n] | – | 299 ± 3.74 |
| 1.46 ± 0.54 | Cc1cc(Oc2c(C(F)(F)F)ccn(Cc3n[nH]c(=O)n3C)c2=O)cnc1F [7p] | – | > 250 |
